Experimental data published in patent US10696682B2, “CDK inhibitors” (G1 Therapeutics, Inc., priority 2010, dated 2020).

Molecular target: CDK4/cyclinD (Homo sapiens (Human), UniProt P11802)
Test: CDK4/CyclinD kinase enzymatic assay (Caliper LabChip)
Assay type: biochemical
Conditions: tested as HCl salts, 12-point dose response, at the Km for ATP, three hours
Experimental: Kinase enzymatic reactions were performed in 384-well microplates using a 12-channel Caliper LabChip instrument as a detection device. […] As substrate and product are separated, two peaks of fluorescence are observed. Change in the relative fluorescence intensity of the substrate and product peaks is the parameter measured, reflecting enzyme activity. In the presence of an inhibitor, the ratio between product and substrate is altered. The signal of the product decreases, while the signal of the substrate increases.
Potential inhibitor compounds (as HCl salts) were tested using 12-point dose response curves in […] at the Km for ATP. The IC50 of each compound was determined using GraphPad Prism.

Sequence of CDK4/cyclinD (P11802 whole entry, species assumed): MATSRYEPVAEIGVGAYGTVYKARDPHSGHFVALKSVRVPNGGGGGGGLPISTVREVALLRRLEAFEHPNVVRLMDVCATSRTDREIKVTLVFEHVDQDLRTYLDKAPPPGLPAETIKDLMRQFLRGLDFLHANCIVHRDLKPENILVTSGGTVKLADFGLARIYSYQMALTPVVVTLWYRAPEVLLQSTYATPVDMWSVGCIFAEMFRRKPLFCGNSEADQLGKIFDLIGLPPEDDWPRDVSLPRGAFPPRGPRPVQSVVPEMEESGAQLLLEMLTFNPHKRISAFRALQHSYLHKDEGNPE
Sequence of CDK4/cyclinD (P24385 whole entry partner, species assumed): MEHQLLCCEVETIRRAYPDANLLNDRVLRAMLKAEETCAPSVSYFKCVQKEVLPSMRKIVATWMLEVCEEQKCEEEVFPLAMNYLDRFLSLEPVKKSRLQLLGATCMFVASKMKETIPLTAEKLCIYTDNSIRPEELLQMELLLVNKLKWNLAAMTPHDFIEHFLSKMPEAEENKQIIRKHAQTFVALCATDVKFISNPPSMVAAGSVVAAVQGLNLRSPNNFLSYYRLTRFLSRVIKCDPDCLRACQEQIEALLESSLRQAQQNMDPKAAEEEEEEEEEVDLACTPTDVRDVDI

SMILES: O=C1NCCn2c1cc1cnc(Nc3ccc(N4CCNCC4)cn3)nc12 [Compound 3]
- IC50: 1050 nM
